Assay results from patent US6444617B1, “Fused-heterocycle dicarboxylic acid diamide derivatives or salts thereof, herbicide and usage thereof” (Nihon Nohyaku Co., Ltd., priority 1998, dated 2002).

Columns and labels:
Assay type in all cases: in vivo
wheat (Wh) = assay: Test Example 3: phytotoxicity to upland crop plants, treatment before emergence; conditions: dosage 5 kg/ha
How it was run: (§1)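 Compound formulated as a liquid agent at a prescribed concentration is sprayed before crop emergence. After fourteen days, damage to soybean and wheat is examined and rated by a judgment criterion.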

soybean plant (So) = assay: as above; conditions: dosage 5 kg/ha
How it was run: as §1

[1] = test system: cocklebur (Xanthium strumarium L.), Xs; assay: Test Example 3: herbicidal effect on upland weeds before emergence; conditions: dosage 5 kg/ha
How it was run: (§2)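 Test compound, formulated as a liquid at a fixed concentration, is sprayed before weed emergence. Two weeks later, kill rate is derived and herbicidal activity is rated.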

[2] = test system: barnyard grass (Echinochloa crus-galli Beauv.), Ec; assay: as above; conditions: dosage 5 kg/ha
How it was run: as §2

[3] = test system: velvetleaf (Abutilon theophtasti L.), At; assay: as above; conditions: dosage 5 kg/ha
How it was run: as §2

[4] = test system: bird's eye speedwell (Veronica persica Poir.), Vp; assay: as above; conditions: dosage 5 kg/ha
How it was run: as §2

[5] = test system: forxtail grass (Alopecurus aequalis var. amurensis Ohwi), Am; assay: as above; conditions: foxtail grass, dosage 5 kg/ha
How it was run: as §2

[6] = test system: cleavers (Galium aparine L.), Ga; assay: as above; conditions: dosage 5 kg/ha
How it was run: as §2

[7] = test system: cocklebur (Xanthium strumarium L.), Xs; assay: Test Example 4: herbicidal effect on upland weeds after emergence; conditions: dosage 5 kg/ha; sprayed after emergence; judged 14 days after treatment
How it was run: (§3)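 Scores of weed-killing rate, with crop phytotoxicity, come from inspection 14 days after plants in soil vats, grown to specified leaf stages, are sprayed with a formulation holding the compound at a prescribed concentration.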

[8] = test system: barnyard grass (Echinochloa crus-galli Beauv.), Ec; assay: as above; conditions: dosage 5 kg/ha; sprayed after emergence; judged 14 days after treatment
How it was run: as §3

[9] = test system: velvetleaf (Abutilon theophtasti L.), At; assay: as above; conditions: dosage 5 kg/ha; sprayed after emergence; judged 14 days after treatment
How it was run: as §3

[10] = test system: bird's eye speedwell (Veronica persica Poir.), Vp; assay: as above; conditions: dosage 5 kg/ha; sprayed after emergence; judged 14 days after treatment
How it was run: as §3

[11] = test system: forxtail grass (Alopecurus aequalis var. amurensis Ohwi), Am; assay: as above; conditions: dosage 5 kg/ha; sprayed after emergence; judged 14 days after treatment
How it was run: as §3

[12] = test system: cleavers (Galium aparine L.), Ga; assay: as above; conditions: dosage 5 kg/ha; sprayed after emergence; judged 14 days after treatment
How it was run: as §3

[13] = test system: barnyard grass (Echinochloa crus-galli Beauv.); assay: Test Example 2: herbicidal effect on paddy field weeds after emergence; conditions: Dosage 5 kg/ha; one-leaved stage; 21 days after treatment
How it was run: (§4)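 Weeds were sown in 1/10000 are pots of soil flooded to paddy conditions and grown to the one-leaf stage, then the soil was treated with a solution of compound at a predetermined dosage.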

[14] = test system: monochoria (Monochoria vaginalis Presl); assay: as above; conditions: Dosage 5 kg/ha; one-leaved stage; 21 days after treatment
How it was run: as §4

[15] = test system: bulrush (Scirpus juncoides Roxb.); assay: as above; conditions: Dosage 5 kg/ha; one-leaved stage; 21 days after treatment
How it was run: as §4

[16] = test system: barnyard grass (Echinochloa crus-galli Beauv.); assay: Test Example 1: herbicidal effect on paddy field weeds before emergence; conditions: Dosage 5 kg/ha
How it was run: (§5)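 Grading reflects percent control relative to untreated plots, evaluated three weeks post-application. Treatment was a soil application of compound solution, predetermined dose, made to paddy-state pots before weed seeds germinated.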

[17] = test system: bulrush (Scirpus juncoides Roxb.); assay: as above; conditions: Dosage 5 kg/ha
How it was run: as §5

soybean plant = assay: Test Example 4: phytotoxicity to upland crop plants, treatment after emergence; conditions: dosage 5 kg/ha, sprayed after emergence, judged 14 days after treatment
How it was run: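 Post-emergence foliar spray, compound at prescribed concentration, applied at defined leaf stages; weeds plus soybean/wheat grown in soil vats. Read-out: weed-killing rate and crop injury, 14 d post-treatment.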

wheat = assay: as above; conditions: dosage 5 kg/ha, sprayed after emergence, judged 14 days after treatment
How it was run: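 Seeds sown in soil and covered. Plants raised to specified leaf stages. Agent with test compound at a prescribed concentration sprayed. Herbicidal effect and crop damage scored after 14 days as weed-killing rate.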

Q: What does the source list for `CCCNC(=O)c1nc2c(C)nn(C)c2cc1C(=O)Nc1c(CC)ccc(Cl)c1CC` [compound 1197]?
A: Phytotoxicity Wh (wheat (Wh)): 5 (Crop-killing rate is 100%.); Phytotoxicity So (soybean plant (So)): 5 (Crop-killing rate is 100%.); Herbicidal effect Xs [1]: 5 (Weed-killing rate is 100%.); Herbicidal effect Ec [2]: 5 (Weed-killing rate is 100%.); Herbicidal effect At [3]: 5 (Weed-killing rate is 100%.); Herbicidal effect Vp [4]: 5 (Weed-killing rate is 100%.); Herbicidal effect Am [5]: 5 (Weed-killing rate is 100%.); Herbicidal effect Ga [6]: 5 (Weed-killing rate is 100%.); Herbicidal effect Xs [7]: 5 (Weed-killing rate is 100%.); Herbicidal effect Ec [8]: 5 (Weed-killing rate is 100%.); Herbicidal effect At [9]: 5 (Weed-killing rate is 100%.); Herbicidal effect Vp [10]: 5 (Weed-killing rate is 100%.); Herbicidal effect Am [11]: 5 (Weed-killing rate is 100%.); Herbicidal effect Ga [12]: 5 (Weed-killing rate is 100%.); Post-emergence treatment Barnyard grass (herbicidal effect) [13]: 5 (Weed-killing rate is 100%.); Post-emergence treatment Monochoria (herbicidal effect) [14]: 5 (Weed-killing rate is 100%.); Post-emergence treatment Bulrush (herbicidal effect) [15]: 5 (Weed-killing rate is 100%.); Pre-emergence treatment Barnyard grass (herbicidal effect) [16]: 5 (Weed-killing rate is 100%.); Pre-emergence treatment Bulrush (herbicidal effect) [17]: 5 (Weed-killing rate is 100%.); Phytotoxicity So (soybean plant): 5 (Crop-killing rate is 100%.); Phytotoxicity Wh (wheat): 5 (Crop-killing rate is 100%.)

Q: What does the source list for `CCCNC(=O)c1nc2ncn(C)c2cc1C(=O)Nc1c(CC)ccc(Cl)c1CC` [compound 1209]?
A: Phytotoxicity Wh (wheat (Wh)): 5 (Crop-killing rate is 100%.); Phytotoxicity So (soybean plant (So)): 5 (Crop-killing rate is 100%.); Herbicidal effect Xs [1]: 5 (Weed-killing rate is 100%.); Herbicidal effect Ec [2]: 5 (Weed-killing rate is 100%.); Herbicidal effect At [3]: 5 (Weed-killing rate is 100%.); Herbicidal effect Vp [4]: 5 (Weed-killing rate is 100%.); Herbicidal effect Am [5]: 5 (Weed-killing rate is 100%.); Herbicidal effect Ga [6]: 5 (Weed-killing rate is 100%.); Herbicidal effect Xs [7]: 5 (Weed-killing rate is 100%.); Herbicidal effect Ec [8]: 5 (Weed-killing rate is 100%.); Herbicidal effect At [9]: 5 (Weed-killing rate is 100%.); Herbicidal effect Vp [10]: 5 (Weed-killing rate is 100%.); Herbicidal effect Am [11]: 5 (Weed-killing rate is 100%.); Herbicidal effect Ga [12]: 5 (Weed-killing rate is 100%.); Post-emergence treatment Barnyard grass (herbicidal effect) [13]: 5 (Weed-killing rate is 100%.); Post-emergence treatment Monochoria (herbicidal effect) [14]: 5 (Weed-killing rate is 100%.); Post-emergence treatment Bulrush (herbicidal effect) [15]: 5 (Weed-killing rate is 100%.); Pre-emergence treatment Barnyard grass (herbicidal effect) [16]: 5 (Weed-killing rate is 100%.); Pre-emergence treatment Bulrush (herbicidal effect) [17]: 5 (Weed-killing rate is 100%.); Phytotoxicity So (soybean plant): 5 (Crop-killing rate is 100%.); Phytotoxicity Wh (wheat): 5 (Crop-killing rate is 100%.)

Q: Which results are given for `CCCNC(=O)c1nc2nc(C)n(C)c2cc1C(=O)Nc1c(CC)ccc(Cl)c1CC` [compound 1233]?
A: Phytotoxicity Wh (wheat (Wh)): 5 (Crop-killing rate is 100%.); Phytotoxicity So (soybean plant (So)): 5 (Crop-killing rate is 100%.); Herbicidal effect Xs [1]: 5 (Weed-killing rate is 100%.); Herbicidal effect Ec [2]: 5 (Weed-killing rate is 100%.); Herbicidal effect At [3]: 5 (Weed-killing rate is 100%.); Herbicidal effect Vp [4]: 5 (Weed-killing rate is 100%.); Herbicidal effect Am [5]: 5 (Weed-killing rate is 100%.); Herbicidal effect Ga [6]: 5 (Weed-killing rate is 100%.); Herbicidal effect Xs [7]: 5 (Weed-killing rate is 100%.); Herbicidal effect Ec [8]: 5 (Weed-killing rate is 100%.); Herbicidal effect At [9]: 5 (Weed-killing rate is 100%.); Herbicidal effect Vp [10]: 5 (Weed-killing rate is 100%.); Herbicidal effect Am [11]: 5 (Weed-killing rate is 100%.); Herbicidal effect Ga [12]: 5 (Weed-killing rate is 100%.); Post-emergence treatment Barnyard grass (herbicidal effect) [13]: 5 (Weed-killing rate is 100%.); Post-emergence treatment Monochoria (herbicidal effect) [14]: 5 (Weed-killing rate is 100%.); Post-emergence treatment Bulrush (herbicidal effect) [15]: 5 (Weed-killing rate is 100%.); Pre-emergence treatment Barnyard grass (herbicidal effect) [16]: 5 (Weed-killing rate is 100%.); Pre-emergence treatment Bulrush (herbicidal effect) [17]: 5 (Weed-killing rate is 100%.); Phytotoxicity So (soybean plant): 5 (Crop-killing rate is 100%.); Phytotoxicity Wh (wheat): 5 (Crop-killing rate is 100%.)
